Reference: ChEMBL document CHEMBL3612057, “Discovery of indolizines containing triazine moiety as new leads for the development of antitumoral agents targeting mitotic events” (2015)
Calls of active or inactive are those of the source. The rule behind the calls is not given here.

Experiments:
MDA-MB-231 = experiment: Cytotoxicity against human MDA-MB-231 cells assessed as growth inhibition at 10 uM after 24 hrs by SRB assay; format: functional; conditions: MDA-MB-231, 24 h, read-out: GI
RXF 393 [1] = experiment: Cytotoxicity against human RXF393 cells assessed as growth inhibition at 10 uM after 24 hrs by SRB assay; format: functional; conditions: RXF 393, 24 h, read-out: GI
HOP-62 [2] = experiment: Cytotoxicity against human HOP62 cells after 48 hrs by SRB assay; format: functional; conditions: HOP-62, 48 h
OVCAR-3 = experiment: Cytotoxicity against human OVCAR3 cells assessed as growth inhibition at 10 uM after 24 hrs by SRB assay; format: functional; conditions: OVCAR-3, 24 h, read-out: GI
HOP-92 [3] = experiment: Cytotoxicity against human HOP92 cells assessed as growth inhibition at 10 uM after 24 hrs by SRB assay; format: functional
SK-MEL-5 = experiment: Cytotoxicity against human SK-MEL-5 cells assessed as growth inhibition at 10 uM after 24 hrs by SRB assay; format: functional
NCI-H460 = experiment: Cytotoxicity against human NCI-H460 cells assessed as growth inhibition at 10 uM after 24 hrs by SRB assay; format: functional; conditions: NCI-H460, 24 h, read-out: GI
SK-MEL-28 = experiment: Cytotoxicity against human SK-MEL-28 cells assessed as growth inhibition at 10 uM after 24 hrs by SRB assay; format: functional; conditions: SK-MEL-28, 24 h, read-out: GI
Ovis aries = organism: Ovis aries; experiment: Inhibition of sheep tubulin polymerization at 100 uM by fluorescence assay
SR = experiment: Cytotoxicity against human SR cells assessed as growth inhibition at 10 uM after 24 hrs by SRB assay; format: functional
TK-10 = experiment: Cytotoxicity against human TK10 cells assessed as growth inhibition at 10 uM after 24 hrs by SRB assay; format: functional
SNB-75 [4] = experiment: Cytotoxicity against human SNB75 cells assessed as growth inhibition at 10 uM after 24 hrs by SRB assay; format: functional; conditions: SNB-75, 24 h, read-out: GI
CCRF-CEM = experiment: Cytotoxicity against human CCRF-CEM cells assessed as growth inhibition at 10 uM after 24 hrs by SRB assay; format: functional
CAKI-1 = experiment: Cytotoxicity against human CAKI-1 cells assessed as growth inhibition at 10 uM after 24 hrs by SRB assay; format: functional; conditions: CAKI-1, 24 h, read-out: GI
RPMI-8226 = experiment: Cytotoxicity against human RPMI8226 cells assessed as growth inhibition at 10 uM after 24 hrs by SRB assay; format: functional
PC-3 = experiment: Cytotoxicity against human PC3 cells assessed as growth inhibition at 10 uM after 24 hrs by SRB assay; format: functional; conditions: PC-3, 24 h, read-out: GI
MDA-MB-435 = experiment: Cytotoxicity against human MDA-MB-435 cells assessed as growth inhibition at 10 uM after 24 hrs by SRB assay; format: functional
K562 = experiment: Cytotoxicity against human K562 cells assessed as growth inhibition at 10 uM after 24 hrs by SRB assay; format: functional
[5] = Cytotoxicity against human Hs578T cells assessed as growth inhibition at 10 uM after 24 hrs by SRB assay; format: functional; conditions: Hs-578T, read-out: GI
NCI-H226 = experiment: Cytotoxicity against human NCI-H226 cells assessed as growth inhibition at 10 uM after 24 hrs by SRB assay; format: functional; conditions: NCI-H226, 24 h, read-out: GI
OVCAR-8 = experiment: Cytotoxicity against human OVCAR8 cells assessed as growth inhibition at 10 uM after 24 hrs by SRB assay; format: functional; conditions: OVCAR-8, 24 h, read-out: GI
UACC-257 = experiment: Cytotoxicity against human UACC257 cells assessed as growth inhibition at 10 uM after 24 hrs by SRB assay; format: functional; conditions: UACC-257, 24 h, read-out: GI
U-251 = experiment: Cytotoxicity against human U251 cells assessed as growth inhibition at 10 uM after 24 hrs by SRB assay; format: functional
Malme-3M = experiment: Cytotoxicity against human MALME-3M cells assessed as growth inhibition at 10 uM after 24 hrs by SRB assay; format: functional; conditions: read-out: GI
SNB-75 [6] = experiment: Cytotoxicity against human SNB75 cells after 48 hrs by SRB assay; format: functional; conditions: SNB-75, 48 h
HCT-116 = experiment: Cytotoxicity against human HCT116 cells assessed as growth inhibition at 10 uM after 24 hrs by SRB assay; format: functional
UACC-62 = experiment: Cytotoxicity against human UACC62 cells assessed as growth inhibition at 10 uM after 24 hrs by SRB assay; format: functional
HOP-92 [7] = experiment: Cytotoxicity against human HOP92 cells after 48 hrs by SRB assay; format: functional; conditions: HOP-92, 48 h
T47D = experiment: Cytotoxicity against human T47D cells assessed as growth inhibition at 10 uM after 24 hrs by SRB assay; format: functional; conditions: read-out: GI
SF-539 = experiment: Cytotoxicity against human SF539 cells assessed as growth inhibition at 10 uM after 24 hrs by SRB assay; format: functional
NCI/ADR-RES = experiment: Cytotoxicity against human NCI/ADR-RES cells assessed as growth inhibition at 10 uM after 24 hrs by SRB assay; format: functional; conditions: read-out: GI
HL-60(TB) = experiment: Cytotoxicity against human HL-60(TB) cells assessed as growth inhibition at 10 uM after 24 hrs by SRB assay; format: functional
SF-295 = experiment: Cytotoxicity against human SF295 cells assessed as growth inhibition at 10 uM after 24 hrs by SRB assay; format: functional; conditions: SF-295, 24 h, read-out: GI
NCI-H522 = experiment: Cytotoxicity against human NCI-H522 cells assessed as growth inhibition at 10 uM after 24 hrs by SRB assay; format: functional
A549 = experiment: Cytotoxicity against human A549 cells assessed as growth inhibition at 10 uM after 24 hrs by SRB assay; format: functional; conditions: A549, 24 h, read-out: GI
SK-OV-3 = experiment: Cytotoxicity against human SKOV3 cells assessed as growth inhibition at 10 uM after 24 hrs by SRB assay; format: functional
RXF 393 [8] = experiment: Cytotoxicity against human RXF393 cells after 48 hrs by SRB assay; format: functional; conditions: RXF 393, 48 h
MCF7 = experiment: Cytotoxicity against human MCF7 cells assessed as growth inhibition at 10 uM after 24 hrs by SRB assay; format: functional; conditions: MCF7, 24 h, read-out: GI
HOP-62 [9] = experiment: Cytotoxicity against human HOP62 cells assessed as growth inhibition at 10 uM after 24 hrs by SRB assay; format: functional
OVCAR-4 = experiment: Cytotoxicity against human OVCAR4 cells assessed as growth inhibition at 10 uM after 24 hrs by SRB assay; format: functional; conditions: OVCAR-4, 24 h, read-out: GI
ACHN = experiment: Cytotoxicity against human ACHN cells assessed as growth inhibition at 10 uM after 24 hrs by SRB assay; format: functional; conditions: read-out: GI
786-0 [10] = experiment: Cytotoxicity against human 786-0 cells after 48 hrs by SRB assay; format: functional; conditions: 786-0, 48 h
786-0 [11] = experiment: Cytotoxicity against human 786-0 cells assessed as growth inhibition at 10 uM after 24 hrs by SRB assay; format: functional; conditions: 786-0, 24 h, read-out: GI

Which results are given for `COc1nc(OC)nc(-c2cc(C(=O)c3ccc(Br)cc3)n3ccc4ccccc4c23)n1`?
inhibition of growth at 10 µM (MDA-MB-231): 96%; inhibition of growth at 10 µM (RXF 393 [1]): 81%; GI50 (HOP-62 [2]): 22.8 µM; inhibition of growth at 10 µM (OVCAR-3): 51%; growth inhibition (GI) (HOP-92 [3]): inactive; growth inhibition (GI) (SK-MEL-5): inactive; inhibition of growth at 10 µM (NCI-H460): 71%; inhibition of growth at 10 µM (SK-MEL-28): 52%; inhibition (Ovis aries): inactive; growth inhibition (GI) (SR): inactive; growth inhibition (GI) (TK-10): inactive; inhibition of growth at 10 µM (SNB-75 [4]): 75%; growth inhibition (GI) (CCRF-CEM): inactive; inhibition of growth at 10 µM (CAKI-1): 44%; growth inhibition (GI) (RPMI-8226): inactive; inhibition of growth at 10 µM (PC-3): 58%; growth inhibition (GI) (MDA-MB-435): inactive; growth inhibition (GI) (K562): inactive; inhibition of growth at 10 µM [5]: 65%; inhibition of growth at 10 µM (NCI-H226): 28%; inhibition of growth at 10 µM (OVCAR-8): 50%; inhibition of growth at 10 µM (UACC-257): 32%; growth inhibition (GI) (U-251): inactive; inhibition of growth at 10 µM (Malme-3M): 67%; GI50 (SNB-75 [6]): 2.58 µM; growth inhibition (GI) (HCT-116): inactive; growth inhibition (GI) (UACC-62): inactive; GI50 (HOP-92 [7]): 13.2 µM; inhibition of growth at 10 µM (T47D): 38%; growth inhibition (GI) (SF-539): inactive; inhibition of growth at 10 µM (NCI/ADR-RES): 46%; growth inhibition (GI) (HL-60(TB)): inactive; inhibition of growth at 10 µM (SF-295): 76%; growth inhibition (GI) (NCI-H522): inactive; inhibition of growth at 10 µM (A549): 55%; growth inhibition (GI) (SK-OV-3): inactive; GI50 (RXF 393 [8]): 3.57 µM; inhibition of growth at 10 µM (MCF7): 60%; growth inhibition (GI) (HOP-62 [9]): inactive; inhibition of growth at 10 µM (OVCAR-4): 33%; inhibition of growth at 10 µM (ACHN): 29%; GI50 (786-0 [10]): 4.06 µM; inhibition of growth at 10 µM (786-0 [11]): 81%
